Entries after “also recorded” stand apart in the source; their conditions may differ. Where a SMILES comes first, the peptide text is derived from it. The star is where a group is joined. Orn(α-tetramethylguanidino) = CN(C)C(=N[C@@H](CCCN)C(=O)*)N(C)C
Columns and labels:
50S subunit = molecular target: T1, 50S subunit (Escherichia coli, UniProt P0A7M6+P0ADZ0+P60723+P61175); experiment: Fluorescence polarization binding, 50S subunit; set-up: species or system E. coli
T1 construct: Ribosomes were isolated from the E. coli strain MRE600; made in house; native subunits isolated in house
Experimental: Several hundred grams of log-phase cells were commercially produced and purchased. Cells were washed in buffer A (20 mmol/L HEPES (pH 7.6), 6 mmol/L MgAc2, 30 mmol/L AcOK, 4 mmol/L ß-mercaptoethanol) and lysed in an M-110L microfluidizer (Microfluidics) at 17,000 psi and 4 °C. Cell debris was removed by low-speed centrifugation (15,000× g, 10 min, 4 °C) to obtain S30 lysate. Crude ribosomes, mostly containing 70S ribosomes, were pelleted by ultracentrifugation (40,000× g, 17 h, 4 °C) and resuspended in buffer A. The 70S ribosomes were separated from 30S and 50S subunits by zonal ultracentrifugation (Beckman Ti-15; 6–40% sucrose gradient in buffer A, 44,000× g, 16 h, 4 °C). The 70S-containing fractions were collected, and the ribosomes were sedimented by ultracentrifugation (40,000× g, 17 h, 4 °C). Since these 70S ribosomes still contained tRNAs and mRNA, they were resuspended in buffer B (20 mmol/L HEPES (pH 7.6), 1 mmol/L MgAc2, 0.2 mol/L NH4Ac, 4 mmol/L ß-mercaptoethanol), which allows for dissociation into 30S and 50S subunits, and subjected to a second zonal centrifugation (Beckman Ti-15, 44,000× g, 16 h, 4 °C), but this time in a 6–40% sucrose gradient prepared in buffer B. Fractions containing 30S and 50S subunits were collected, sedimented by ultracentrifugation (40,000× g, 17 h, 4 °C), resuspended in buffer A, aliquoted, shock-frozen in liquid nitrogen, and stored at −80 °C.
Dissociation constants (Kd) were determined using purified 70S ribosome, 50S or 30S subunit and cf-labeled peptides in ribosome preparation buffer. Briefly, black 384-well plates (flat bottom, 781209, Greiner Bio-One GmbH) were blocked with casein (0.5%, w/v) in PBS containing 0.05% (v/v) Tween 20 at 4 °C overnight and washed three times with phosphate buffer. A 2-fold dilution series (22 steps) of pure 70S ribosome, 50S or 30S subunit (10 μL per well) in ribosome preparation buffer was prepared in a black 384-well plate. The cf-labeled peptide was dissolved in ribosome preparation buffer (10 μL, 40 nmol/L), added to each well, centrifuged (500 x g, 2 min), and incubated at 28 ± 1 °C for 90 min. Fluorescence polarization was measured on a […]^TM microplate reader (Beckman Coulter, Krefeld, Germany) in the top reading position (λexc = 485 nm, λem = 535 nm). Data were fitted to a nonlinear dose-response logistic transition equation [y = y0 + a/(1 + (x/x0)b)] using the Levenberg-Marquardt algorithm, with Kd represented by the x0 coefficients (GraphPad Prism for Windows v. 10.1.2, San Diego, CA, USA).

purified 70S ribosome [1] = molecular target: T2, purified 70S ribosome (Escherichia coli, UniProt P0A7M6+P0ADZ0+P60723+P61175); experiment: Fluorescence polarization binding, purified 70S ribosome; set-up: species or system E. coli
T2 construct: obtain highly pure E. coli 70S ribosomes; made in house; host or cells: E. coli BW25113 (native ribosomes isolated, not recombinant)
Experimental: (§1) E. coli BW25113 were grown in LB medium and harvested by centrifugation (5000× g, 15 min, 4 °C) at an OD600 of 3-4. Cell pellets were washed in ribosome preparation buffer (20 mmol/L HEPES-KOH, 6 mmol/L MgCl2, 30 mmol/L NH4Cl, pH 7.6, 4 °C), centrifuged (4100× g, 30 min, 4 °C), and suspended in ribosome preparation buffer ([…]) containing freshly added ß-mercaptoethanol (4 mmol/L). Lysozyme was added to the resuspended cells and incubated for 30 min on ice. Cells were disrupted in six cycles using a FastPrep-24^TM 5 G instrument (MP Biomedicals, Eschwege, Germany) with the BigPrep 50 mL setting (40 s, 4.0 m/s) and one-minute incubation on ice between cycles. […]
(§2) Ribosomes were purified by anion exchange chromatography using an Äkta Pure System (GE Healthcare, Freiburg, Germany) and a CIM®QA column (8 mL, 2 µm channels; Sartorius Stedim Biotech GmbH, Göttingen, Germany). […] The ribosome concentration was estimated by recording the absorbance at 260 nm (considering that 15 AU corresponds to a ribosome concentration of 1 g/L). […]
Dissociation constants (Kd) were determined using purified 70S ribosome, 50S or 30S subunit and cf-labeled peptides in ribosome preparation buffer. […] Fluorescence polarization was measured on a […]^TM microplate reader (Beckman Coulter, Krefeld, Germany) in the top reading position (λexc = 485 nm, λem = 535 nm). […]

purified 70S ribosome [2] = molecular target: T2, purified 70S ribosome; experiment: Fluorescence polarization competition with cf-Api88 on purified 70S ribosome; type: binding, E. coli; conditions: competition with cf-Api88, pure 70S ribosome; 28 °C
Experimental: as §1, §2
Inhibition constants (Ki) were determined for the pure 70S ribosome using cf-labeled and unlabeled peptides in the ribosome preparation buffer. […] Fluorescence polarization was measured on a […]^TM microplate reader in the top reading position (λexc = 485 nm, λem = 535 nm). […] The Ki values were calculated as described by Mathias and Jung[39].

recombinant TF = conditions: fluorescence polarization; cited from earlier work
Excerpt: Binding sites two and three are close to uL23 and uL29, which is also supported by Api88(Y7B) cross-links. These ribosomal proteins are located adjacent to the PET exit and are binding hubs for the molecular chaperone trigger factor (TF)[34] and the signal recognition particle (SRP), a universally conserved and essential cellular machinery that directs proteins destined for membrane integration to the plasma membrane[35],[36]. This co-translational targeting is initiated by a hydrophobic signal sequence in the nascent protein chain recognized by SRP as it exits the PET. It is appealing to hypo ...

DnaK = conditions: read-out: Kd (DnaK); peer review response; cited from earlier work
Excerpt: We now introduce trigger factor in line 446 as “…molecular chaperone…” In addition, we hypothesize that Api88 binds to the ribosome within the contact area of TF, which interacts with uL23 and uL29, two proteins we report here as cross-linked to Api88.

CC[C@H](C)[C@H](NC(=O)[C@H](Cc1ccc(O)cc1)NC(=O)[C@@H](NC(=O)[C@@H]1CCCN1C(=O)[C@H](CCCNC(=N)N)NC(=O)[C@H](CC(N)=O)NC(=O)[C@H](CC(N)=O)NC(=O)[C@H](CCCN)N=C(N(C)C)N(C)C)C(C)C)C(=O)N1CCC[C@H]1C(=O)N[C@@H](CCCNC(=N)N)C(=O)N1CCC[C@H]1C(=O)N[C@@H](CCCNC(=N)N)C(=O)N1CCC[C@H]1C(=O)N1CCC[C@H]1C(=O)N[C@@H](Cc1c[nH]cn1)C(=O)N1CCC[C@H]1C(=O)N[C@@H](CCCNC(=N)N)C(=O)N[C@@H](CC(C)C)C(N)=O [Api88] ({Orn(α-tetramethylguanidino)}-NNRPVYIPRPRPPHPRL-NH2)
Kd (50S subunit; apparent Kd, cf-labeled PrAMP (10 μL, 40 nmol/L), ribosome preparation buffer pH 7.6, 28 °C, 90 min, mean of triplicates): 580 ± 50 nM
Kd for 50S subunit lower than for 70S ribosome (50S subunit; ratio 70S / 50S, cf-labeled): threefold
Kd (purified 70S ribosome [1]; apparent Kd, cf-labeled PrAMP (10 μL, 40 nmol/L), ribosome preparation buffer (20 mmol/L HEPES-KOH, 6 mmol/L MgCl2, 30 mmol/L NH4Cl, pH 7.6), 28 °C, 90 min, mean of triplicates, read-out: Kd 70S ribosome pure): 1820 ± 80 nM
higher affinity of Api88 than Api137 (purified 70S ribosome [1]; purified 70S ribosomes and 50S subunits): 2-3 fold

CC[C@H]1OC(=O)[C@H](C)[C@@H](O[C@H]2C[C@@](C)(OC)[C@@H](O)[C@H](C)O2)[C@H](C)[C@@H](O[C@@H]2O[C@H](C)C[C@H](N(C)C)[C@H]2O)[C@](C)(O)C[C@@H](C)C(=O)[C@H](C)[C@@H](O)[C@]1(C)O [erythromycin]
displacement of cf-Api88 / decrease in fluorescence polarization (purified 70S ribosome [2]): significantly competing with the binding of cf-Api88; also recorded: reduced the fluorescence polarization to a much lesser extent

GNNRPVYIPQPRPPHPRL [apidaecin 1b, reference compound]
Kd (recombinant TF): > 100000 nM
Kd (DnaK): ~5000 nM
